Assay results from US9856279B2 (AGIOS PHARMACEUTICALS, INC, priority 2011, dated 2018).

target: IDH1 R132H (Homo sapiens, UniProt O75874, R132H); experiment: Assay for IDH1 R132H inhibitors (NADPH/aKG, resazurin detection); type: biochemical; details: Table 3; enzyme assay, 50 minutes at room temperature; read-out: IC50 (IDH1 R132H Inhibition)
Method in brief: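 Read-out is resorufin fluorescence (Ex544/Em590) 5 min after adding a 30 μM resazurin detection mix. Before that, mutant enzyme (0.2 μg/ml in its mix) ran 50 min at room temperature with compound, 8 uM NADPH and 2 mM aKG (mix levels) in Tris pH 7.5 with NaCl, MgCl2, BSA.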

Chain of IDH1 R132H (O75874 whole entry R132H): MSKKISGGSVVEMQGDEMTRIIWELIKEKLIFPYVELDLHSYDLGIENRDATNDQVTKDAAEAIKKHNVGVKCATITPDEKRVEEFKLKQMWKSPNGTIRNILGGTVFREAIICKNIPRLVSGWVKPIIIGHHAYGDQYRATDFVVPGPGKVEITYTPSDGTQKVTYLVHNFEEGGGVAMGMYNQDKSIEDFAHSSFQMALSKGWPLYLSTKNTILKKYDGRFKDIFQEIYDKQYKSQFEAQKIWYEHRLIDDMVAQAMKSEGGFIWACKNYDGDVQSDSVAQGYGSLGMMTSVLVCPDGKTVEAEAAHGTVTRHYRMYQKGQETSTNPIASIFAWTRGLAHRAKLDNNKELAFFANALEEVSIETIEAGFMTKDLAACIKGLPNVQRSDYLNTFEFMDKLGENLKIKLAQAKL

Row | IC50 | Compound
1 | 1 to 5 µM | COCCC(=O)N1CCN(c2nc(C(C)C)c(-c3ccc(C)c(F)c3)cc2C#N)C[C@H]1C [Compound 221, (R)-5-(3-fluoro-4-methylphenyl)-6-isopropyl-2-(4-(3-methoxypropanoyl)-3-methylpiperazin-1-yl)nicotinonitrile]
2 | 1 to 5 µM | COCCC(=O)N1CCN(c2nc(C(C)C)c(-c3ccc(OC(F)(F)F)cc3)cc2C#N)C[C@H]1C [Compound 232, (R)-6-isopropyl-2-(4-(3-methoxypropanoyl)-3-methylpiperazin-1-yl)-5-(4-(trifluoromethoxy)phenyl)nicotinonitrile]
3 | 1 to 5 µM | CC(C)c1nc(N2CCN(C(=O)c3ccoc3)[C@H](C)C2)c(C#N)cc1-c1ccoc1 [Compound 204, (R)-2-(4-(furan-3-carbonyl)-3-methylpiperazin-1-yl)-5-(furan-3-yl)-6-isopropylnicotinonitrile]
4 | 5 to 15 µM | CC(C)c1cc(-c2cccc(F)c2)c(C#N)c(N2CCN(C(=O)c3c[nH]c4ccccc34)C(C)C2)n1 (stereo not shown) [Compound 129, 2-(4-(1H-indole-3-carbonyl)-3-methylpiperazin-1-yl)-4-(3-fluorophenyl)-6-isopropylnicotinonitrile]
5 | 1 to 5 µM | COCCC(=O)N1CCN(c2nc(C(C)C)c(-c3ccncc3)cc2C#N)C[C@H]1C [Compound 213, (R)-2-isopropyl-6-(4-(3-methoxypropanoyl)-3-methylpiperazin-1-yl)-3,4′-bipyridine-5-carbonitrile]
6 | 1 to 5 µM | CC(C)c1nc(N2CCN(C(=O)Cc3ccccc3)CC2)c(C#N)cc1-c1ccccc1 [Compound 126, 6-isopropyl-5-phenyl-2-(4-(2-phenylacetyl)piperazin-1-yl)nicotinonitrile]
7 | 1 to 5 µM | CC(C)c1nc(N2CCN(C(=O)c3c[nH]c4ccccc34)CC2c2ccccc2)c(C#N)cc1-c1ccccc1 (stereo not shown) [Compound 168, 2-(4-(1H-indole-3-carbonyl)-2-phenylpiperazin-1-yl)-6-isopropyl-5-phenylnicotinonitrile]
8 | 5 to 15 µM | CC(C)c1cc(-c2ccccc2)nc(N2CCN(C(=O)c3ccco3)C(C)C2)c1C#N (stereo not shown) [Compound 108, 2-(4-(furan-2-carbonyl)-3-methylpiperazin-1-yl)-4-isopropyl-6-phenylnicotinonitrile]
9 | ≤ 1 µM | COCCC(=O)N1CCN(c2nc(C3CC3)c(-c3ccc(OC(F)(F)F)cc3)cc2C#N)C[C@H]1C [Compound 227, (R)-6-cyclopropyl-2-(4-(3-methoxypropanoyl)-3-methylpiperazin-1-yl)-5-(4-(trifluoromethoxy)phenyl)nicotinonitrile]
10 | 5 to 15 µM | CC(C)c1nc(N2CCN(C(=O)c3ccco3)C(C)C2)c(C#N)cc1-c1ccccc1 (stereo not shown) [Compound 119, 2-(4-(furan-2-carbonyl)-3-methylpiperazin-1-yl)-6-isopropyl-5-phenylnicotinonitrile]
11 | 1 to 5 µM | COc1ccccc1-c1cc(C#N)c(N2CCN(C(=O)c3ccco3)[C@H](C)C2)nc1C(C)C [Compound 176, (R)-2-(4-(furan-2-carbonyl)-3-methylpiperazin-1-yl)-6-isopropyl-5-(2-methoxyphenyl)nicotinonitrile]
12 | 1 to 5 µM | CC1CN(c2nc(C3CCCCC3)cc(-c3ccccc3)c2C#N)CCN1C(=O)c1ccoc1 (stereo not shown) [Compound 138, 6-cyclohexyl-2-(4-(furan-3-carbonyl)-3-methylpiperazin-1-yl)-4-phenylnicotinonitrile]
13 | 1 to 5 µM | COCCC(=O)N1CCN(c2nc(C(C)C)c(-c3ccc(F)cc3)cc2C(=O)OC)C[C@H]1C [Compound 244, (R)-methyl 5-(4-fluorophenyl)-6-isopropyl-2-(4-(3-methoxypropanoyl)-3-methylpiperazin-1-yl)nicotinate]
14 | 1 to 5 µM | CC(C)c1cc(-c2ccccc2)c(C#N)c(N2CCN(C(=O)c3ccco3)CC2c2ccccc2)n1 (stereo not shown) [Compound 167, 2-(4-(furan-2-carbonyl)-2-phenylpiperazin-1-yl)-6-isopropyl-4-phenylnicotinonitrile]
15 | ≤ 1 µM | COCCC(=O)N1CCN(c2nc(C3CC3)c(-c3ccc4[nH]ccc4c3)cc2C#N)C[C@H]1C [Compound 253, (R)-6-cyclopropyl-5-(1H-indol-5-yl)-2-(4-(3-methoxypropanoyl)-3-methylpiperazin-1-yl)nicotinonitrile]
16 | 5 to 15 µM | COc1ccccc1-c1cc(C(C)C)nc(N2CCN(C(=O)c3ccoc3)CC2)c1C#N [Compound 113, 2-(4-(furan-3-carbonyl)piperazin-1-yl)-6-isopropyl-4-(2-methoxyphenyl)nicotinonitrile]
17 | 1 to 5 µM | Cc1occc1C(=O)N1CCN(c2nc(C(C)C)c(-c3ccccc3)cc2C#N)C[C@H]1C [Compound 164, (R)-6-isopropyl-2-(3-methyl-4-(2-methylfuran-3-carbonyl)piperazin-1-yl)-5-phenylnicotinonitrile]
18 | 5 to 15 µM | COc1ccccc1-c1cc(C(C)C)nc(N2CCN(C(=O)Cc3ccccc3)CC2)c1C#N [Compound 146, 6-isopropyl-4-(2-methoxyphenyl)-2-(4-(2-phenylacetyl)piperazin-1-yl)nicotinonitrile]
19 | 5 to 15 µM | Cc1cccc(-c2cc(C#N)c(N3CCN(C(=O)c4ccco4)[C@H](C)C3)nc2C(C)C)c1 [Compound 190]
20 | 5 to 15 µM | COCCC(=O)N1CCN(c2nc(C(C)C)c(-c3cncnc3)cc2C#N)C[C@H]1C [Compound 210, (R)-6-isopropyl-2-(4-(3-methoxypropanoyl)-3-methylpiperazin-1-yl)-5-0γ(pyrimidin-5-yl)nicotinonitrile]
21 | ≤ 1 µM | COCCC(=O)N1CCN(c2nc(C(C)C)c(-c3cccc(OC)c3)cc2C#N)C[C@H]1C [Compound 212, (R)-6-isopropyl-5-(3-methoxyphenyl)-2-(4-(3-methoxypropanoyl)-3-methylpiperazin-1-yl)nicotinonitrile]
22 | ≤ 1 µM | COCCC(=O)N1CCN(c2nc(C3CC3)c(-c3cccc(C)c3)cc2C#N)C[C@H]1C [Compound 225, (R)-6-cyclopropyl-2-(4-(3-methoxypropanoyl)-3-methylpiperazin-1-yl)-5-m-tolylnicotinonitrile]
23 | ≤ 1 µM | COCCC(=O)N1CCN(c2nc(C(C)C)c(-c3ccc(OC)c(OC)c3)cc2C#N)C[C@H]1C [Compound 223, (R)-5-(3,4-dimethoxyphenyl)-6-isopropyl-2-(4-(3-methoxypropanoyl)-3-methylpiperazin-1-yl)nicotinonitr-ile]

same assay, conditions: enzyme assay of Example 12; read-out: IDH1R132H IC50

Row | IC50 | Compound
24 | < 0.5 µM | COCCC(=O)N1CCN(c2nc(C3CC3)c(OCc3cccc(N)c3)cc2C#N)C[C@H]1C [Compound 341]
25 | < 0.5 µM | C=CS(=O)(=O)N(c1cccc(-c2cc(C#N)c(N3CCN(C(=O)CCOC)[C@H](C)C3)nc2C2CC2)c1)S(=O)(=O)C=C [Compound 440, (R)—N-(3-(5-cyano-2-cyclopropyl-6-(4-(3-methoxypropanoyl)-3-methylpiperazin-1-yl)pyridin-3-yl)phenyl)-N-(vinylsulfonyl)ethenesulfonamide]
26 | 0.5 to 1 µM | COCCC(=O)N1CCN(c2nc(C3CC3)c(-c3ccnn3C)c(C)c2C#N)C[C@H]1C [Compound 349, (R)-6-cyclopropyl-2-[4-(3-methoxy-propionyl)-3-methyl-piperazin-1-yl]-4-methyl-5-(2-methyl-2H-pyrazol-3-yl)-nicotinonitrile]
27 | < 0.5 µM | C[C@@H]1CN(c2nc(C3CC3)c(Nc3ccnc(Cl)c3)cc2C#N)CCN1C(=O)CCO [Compound 661, (R)-5-((2-chloropyridin-4-yl)amino)-6-cyclopropyl-2-(4-(3-hydroxypropanoyl)-3-methylpiperazin-1-yl)nicotinonitrile]
28 | 0.5 to 1 µM | C[C@@H]1CN(c2nc(C3CC3)c(-c3ccc4ncoc4c3)cc2C#N)CCN1C(=O)C1CC1 [Compound 467, (R)-5-(benzo[d]oxazol-6-yl)-2-(4-(cyclopropanecarbonyl)-3-methylpiperazin-1-yl)-6-cyclopropylnicotinonitrile]
29 | 0.5 to 1 µM | COCCC(=O)N1CCN(c2nc(C3CC3)c(-c3ccc4cn[nH]c4c3)cc2C#N)C[C@H]1C [Compound 385, (R)-6-cyclopropyl-5-(1H-indazol-6-yl)-2-(4-(3-methoxypropanoyl)-3-methylpiperazin-1-yl)nicotinonitrile]
30 | < 0.5 µM | COCCC(=O)N1CCN(c2nc(C3CC3)c(-c3cccc(COC)c3)c(C)c2C#N)C[C@H]1C [Compound 322, (R)-6-cyclopropyl-5-(3-methoxymethyl-phenyl)-2-[4-(3-methoxy-propionyl)-3-methyl-piperazin-1-yl]-4-methyl-nicotinonitrile]
31 | < 0.5 µM | C=Cc1cnc2c(-c3cc(C#N)c(N4CCN(C(=O)/C=C/CCO)[C@H](C(C)C)C4)nc3C3CC3)cccc2n1 [Compound 790, (R)-6-cyclopropyl-2-(4-(5-hydroxypent-2-enoyl)-3-isopropylpiperazin-1-yl)-5-(2-vinylquinoxalin-5-yl)nicotinonitrile]
32 | 0.5 to 1 µM | C=Cc1ccnc(Nc2cc(C#N)c(N3CCN(C(=O)CN4CCCC4=O)[C@H](C4CC4)C3)nc2C2CC2)c1 [Compound 816, (R)-6-cyclopropyl-2-(3-cyclopropyl-4-(2-(2-oxopyrrolidin-1-yl)acetyl)piperazin-1-yl)-5-((4-vinylpyridin-2-yl)amino)nicotinonitrile]
33 | 0.5 to 1 µM | Cc1c(C#N)c(N2CCN(C(=O)CC(F)(F)F)[C@H](C3CC3)C2)nc(C2CC2)c1-c1ccc(F)cc1 [Compound 300, (R)-6-cyclopropyl-2-(3-cyclopropyl-4-(3,3,3-trifluoropropanoyl)piperazin-1-yl)-5-(4-fluorophenyl)-4-methylnicotinonitrile]
34 | < 0.5 µM | N#Cc1cc(-c2cnnc(O)c2)c(C2CC2)nc1N1CCN(C(=O)CCO)[C@H](C2CC2)C1 [Compound 671, (R)-6-cyclopropyl-2-(3-cyclopropyl-4-(3-hydroxypropanoyl)piperazin-1-yl)-5-(6-hydroxypyridazin-4-yl)nicotinonitrile]
